The source of these data is ChEMBL document CHEMBL1949531, “Synthesis and antiviral activities of novel gossypol derivatives” (Bioorg Med Chem Lett, 2012).

SMILES strings stand for the structures. Calls of active or inactive are those of the source. No cut-off for these calls is given here.

Broadly, the IC50 is the midpoint of a concentration-inhibition curve. Usually inhibition stands for how much of the control response was suppressed. As a reminder, the CC50 is the concentration giving 50% cytotoxicity.

Data set [1] concerns Human immunodeficiency virus 1. The data set is described as follows: Antiviral activity against HIV1 3B infected human TZM-bl cells assessed as inhibition of viral replication by luciferase reporter assay. It is filed as functional, organism-based.
For data set [2], the system named is Human immunodeficiency virus 1. Briefly: Antiviral activity against HIV1 3B infected human TZM-bl cells assessed as inhibition of viral replication at 10 uM treated 8 hrs after viral infection by luciferase reporter assay. It is filed as functional, organism-based.
Data set [3] is described as follows: Cytotoxicity in human TZM-bl cells by MTT assay. It is filed as cell-based.
A short description of data set [4]: Selectivity index, ratio of CC50 for human TZM-bl cells to IC50 for HIV1 3B. It is filed as functional.
In another data set the target is Albumin (Homo sapiens, UniProt P02768). The data set is described as follows: Binding affinity to human serum albumin by fluorescence quenching assay. It is filed as ADME. Conditions: isolated protein.
Sequence of Albumin (P02768 whole entry): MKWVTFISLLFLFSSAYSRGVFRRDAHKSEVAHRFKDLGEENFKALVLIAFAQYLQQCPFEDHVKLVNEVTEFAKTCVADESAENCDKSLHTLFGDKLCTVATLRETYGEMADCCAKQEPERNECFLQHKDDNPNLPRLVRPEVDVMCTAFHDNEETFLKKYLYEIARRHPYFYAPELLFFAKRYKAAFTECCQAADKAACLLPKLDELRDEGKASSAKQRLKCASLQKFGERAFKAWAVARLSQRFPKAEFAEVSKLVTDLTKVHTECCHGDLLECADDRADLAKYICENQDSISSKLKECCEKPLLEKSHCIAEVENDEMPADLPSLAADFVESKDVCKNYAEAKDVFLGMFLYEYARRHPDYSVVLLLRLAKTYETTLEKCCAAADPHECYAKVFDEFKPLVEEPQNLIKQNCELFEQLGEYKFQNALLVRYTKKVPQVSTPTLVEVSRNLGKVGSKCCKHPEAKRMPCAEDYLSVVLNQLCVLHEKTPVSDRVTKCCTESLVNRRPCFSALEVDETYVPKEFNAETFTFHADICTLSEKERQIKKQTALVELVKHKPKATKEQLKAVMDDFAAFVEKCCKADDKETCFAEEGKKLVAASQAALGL
Data set [5] deals with Human immunodeficiency virus 1. Briefly: Antiviral activity against HIV1 3B infected human TZM-bl cells assessed as inhibition of viral replication at 10 uM treated immediately after infection by luciferase reporter assay. It is filed as functional, organism-based. For orientation: In a reporter assay the amount or activity of a reporter protein is the signal.
Data set [6] concerns Human immunodeficiency virus 1. Briefly: Antiviral activity against HIV1 3B infected human TZM-bl cells assessed as inhibition of viral replication at 10 uM treated 2 hrs after viral infection by luciferase reporter assay. It is filed as functional, organism-based.
In another data set the test system is Influenza A virus. The data set is described as follows: Antiviral activity against Influenza A virus (A/Vietnam/1194/2004(H5N1)) infected in MDCK cells assessed as inhibition of viral replication by plaque reduction assay. It is filed as functional, organism-based. (In general: Plaques are areas of infected cells; plaque reduction assays count them against a control.)

A short description of data set [7]: Cytotoxicity against MDCK cells by MTT assay. It is filed as cell-based, Canis lupus familiaris. Conditions: dog. A general note: Tetrazolium dyes change colour on reduction, which living cells bring about.
The nature of data set [8]: Selectivity index, ratio of CC50 for MDCK cells to IC50 for Influenza A virus (A/Vietnam/1194/2004(H5N1)). It is filed as functional.
The target in data set [9] is Human immunodeficiency virus type 1 reverse transcriptase (Human immunodeficiency virus 1) (UniProt Q72547). Briefly: Inhibition of HIV1 reverse transcriptase activity at 20 ug/ml.
Data set [10] has the same target. The data set is described as follows: Inhibition of HIV1 reverse transcriptase activity at 4 ug/ml.
For data set [11] the target is unchanged. Briefly: Inhibition of HIV1 reverse transcriptase activity at 0.8 ug/ml.
Data set [12] has the same target. The data set is described as follows: Inhibition of HIV1 reverse transcriptase activity.
Data set [13] deals with Neuraminidase (Influenza A virus) (UniProt B4URF0). Briefly: Inhibition of Influenza A virus neuraminidase up to 10 uM.
Sequence of Neuraminidase (Influenza A virus) (B4URF0 as listed by the source): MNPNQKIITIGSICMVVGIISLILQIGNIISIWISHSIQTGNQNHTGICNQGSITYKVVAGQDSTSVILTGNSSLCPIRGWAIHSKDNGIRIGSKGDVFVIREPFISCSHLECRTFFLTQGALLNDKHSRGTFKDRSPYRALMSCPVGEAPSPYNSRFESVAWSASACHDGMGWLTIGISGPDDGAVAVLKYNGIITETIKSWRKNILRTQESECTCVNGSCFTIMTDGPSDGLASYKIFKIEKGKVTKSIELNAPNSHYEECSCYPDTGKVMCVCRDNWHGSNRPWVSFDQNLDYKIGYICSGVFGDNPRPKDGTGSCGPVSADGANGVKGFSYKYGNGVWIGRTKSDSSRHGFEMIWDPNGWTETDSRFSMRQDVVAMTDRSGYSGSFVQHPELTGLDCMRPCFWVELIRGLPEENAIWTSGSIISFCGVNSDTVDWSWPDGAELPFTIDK
Where [14] appears, read: Human immunodeficiency virus 1, 3B, TZM-bl, read-out: IC50.

As for `Cc1cn([C@H]2C[C@H](N=[N+]=[N-])[C@@H](CO)O2)c(=O)[nH]c1=O` [ZIDOVUDINE], the IC50 in data set [1] (setting [14]) worked out at 2.8 nM. Also, in data set [2], the inhibition entry was “Active”.

Take `Cc1cc2c(c(O)c1-c1c(C)cc3c(c1O)/C(=C/N[C@@H](C)C(=O)[O-])C(=O)C(O)=C3C(C)C)/C(=C/N[C@@H](C)C(=O)[O-])C(=O)C(O)=C2C(C)C.[Na+].[Na+]`: the IC50 in data set [1] (setting [14]) was 1220 nM; in the data set with Influenza A virus it was 870 nM. The CC50 in [3] is 56200 nM; in [7], above 47300 nM. Further, the “Ratio CC50/IC50” value is on record as 46.09 in data set [4] and above 54.41 in data set [8]. In addition, the Ka at Albumin came out at 1.0392 ×10⁵ L/mol. In addition, the inhibition entry in [5] was “Active”. The inhibition entry in data set [6] is “inactive”.

Consider `Cc1cc2c(C(C)C)c(O)c(O)c(C=O)c2c(O)c1-c1c(C)cc2c(C(C)C)c(O)c(O)c(C=O)c2c1O` [GOSSYPOL], for which the IC50 result in data set [1] (tzm-bl) was “Not Active”. For the same molecule, the CC50 in [3] worked out at 9760 nM; in data set [7], 3530 nM. The Ka at Albumin was 2.3906 ×10⁵ L/mol. For the same molecule, the inhibition in [9] was 73.2%; in [10], 76.3%; in [12], “Dose-dependent effect”. Moreover, in data set [11], the inhibition entry was “inactive”.

With `Cc1cc2c(c(O)c1-c1c(C)cc3c(c1O)/C(=C/N[C@H](C(=O)[O-])C(C)C)C(=O)C(O)=C3C(C)C)/C(=C/N[C@H](C(=O)[O-])C(C)C)C(=O)C(O)=C2C(C)C.[Na+].[Na+]`, the IC50 in data set [1] (setting [14]) came to 1140 nM; with Influenza A virus it was 1780 nM. Also, the CC50 in [3] was 70300 nM; in data set [7] it was above 43900 nM. In addition, the “Ratio CC50/IC50” value is 61.68 in data set [4] and above 24.64 in data set [8]. The Ka at Albumin was 2.114 ×10⁵ L/mol. Besides, in data set [5], the inhibition result was “Active”. In addition, the inhibition result in data set [6] was “inactive”.

Regarding `CC[C@H](C)[C@H](N/C=C1\C(=O)C(O)=C(C(C)C)c2cc(C)c(-c3c(C)cc4c(c3O)/C(=C/N[C@H](C(=O)[O-])[C@@H](C)CC)C(=O)C(O)=C4C(C)C)c(O)c21)C(=O)[O-].[Na+].[Na+]`, the IC50 in [1] (setting [14]) was 1120 nM; in the data set on Influenza A virus it was 340 nM. Besides, the CC50 in [3] is 64500 nM; in [7], above 42300 nM. Moreover, the “Ratio CC50/IC50” value is on record as 57.57 in data set [4] and above 124.41 in data set [8]. On Albumin, the Ka turned out to be 5.3223 ×10⁴ L/mol. For the same molecule, the inhibition result in [5] is “Active”. The inhibition entry in data set [6] and in data set [13] was “inactive” each time.

As to `Cc1cc2c(c(O)c1-c1c(C)cc3c(c1O)/C(=C/N[C@@H](Cc1c[nH]c4ccccc14)C(=O)[O-])C(=O)C(O)=C3C(C)C)/C(=C/N[C@@H](Cc1c[nH]c3ccccc13)C(=O)[O-])C(=O)C(O)=C2C(C)C.[Na+].[Na+]`, the IC50 was determined as 990 nM in data set [1] (setting [14]) and 280 nM with Influenza A virus. Also, the cytotoxic concentration (CC50) in [3] is 48000 nM; in [7], above 35700 nM. Besides, the “Ratio CC50/IC50” value in [4] is on record as 48.43; in data set [8] it was above 127.46. For the same molecule, the Ka at Albumin came out at 9.2747 ×10⁴ L/mol. Moreover, the inhibition entry in [5] is “Active”. Also, the inhibition result in data set [6] and in [13] was “inactive” each time.

For the molecule `Cc1cc2c(c(O)c1-c1c(C)cc3c(c1O)/C(=C/NC(C)(C)C(=O)[O-])C(=O)C(O)=C3C(C)C)/C(=C/NC(C)(C)C(=O)[O-])C(=O)C(O)=C2C(C)C.[Na+].[Na+]`, the figures for the IC50 (in data set [1] (setting [14]); in the data set on Influenza A virus) were 1390 nM and 1050 nM, respectively. The CC50 is 99000 nM in data set [3] and above 45500 nM in data set [7]. The “Ratio CC50/IC50” value in [4] is 71.19; in data set [8] it was above 43.37. Further, at Albumin, the Ka worked out at 1.9125 ×10⁵ L/mol. For the same molecule, the inhibition entry in data set [5] is “Active”. For the same molecule, in data set [6], the inhibition entry was “inactive”.
